Active and inactive are the calls of the source. The calls are words filed in the database; no cut-off is given here.
Columns and labels:
[1] = (§1) Inhibition of 5-alpha-reductase in rat liver microsome assessed as conversion of [14C] testosterone to [14C] dihydrotestosterone; type: microsomes
Rattus norvegicus = organism: Rattus norvegicus; experiment: as §1; type: microsomes
[2] = Cytotoxicity against mouse RAW264 cells assessed as viable cells at 25 uM after 3 days by WST1 assay; type: cell-based; details: read-out: Activity
LNCaP [3] = experiment: Growth inhibition against testosterone-induced human LNCAP cell proliferation assessed as decrease in cell viability after 3 dayssby NR assay; type: functional, cell-based
RAW264 = experiment: Inhibition of osteoclastogenesis in RANKL-stimulated mouse RAW264 cells at 25 uM after 3 days by TRAP assay; type: functional, cell-based
LNCaP [4] = experiment: Growth inhibition of human LNCAP cells assessed as decrease in cell viability after 3 days by NR assay; type: functional, cell-based
[5] = Inhibition of osteoclastogenesis in RANKL-stimulated mouse RAW264 cells at 12.5 uM after 3 days by TRAP assay; type: functional; details: RAW264.7, 72 h
PC-3 [6] = experiment: Antiproliferative activity against human PC3 cells at 12.5 to 50 uM after 3 days by NR assay; type: functional, cell-based
[7] = Cytotoxicity against mouse RAW264 cells assessed as cell number at 12.5 uM after 3 days by WST1 assay; type: cell-based; details: raw264, 72 h
LNCaP [8] = experiment: Growth inhibition against dihydrotestosterone-induced human LNCAP cell proliferation assessed as decrease in cell viability after 3 dayssby NR assay; type: functional, cell-based
[9] = target: T1, Androgen receptor (Homo sapiens) (UniProt P10275); experiment: Inhibition of DHT binding to human recombinant androgen receptor ligand binding domain at 15 uM by fluorescence polarization; set-up: scale not given: the % may be the effect or the level left
T1 sequence (whole entry): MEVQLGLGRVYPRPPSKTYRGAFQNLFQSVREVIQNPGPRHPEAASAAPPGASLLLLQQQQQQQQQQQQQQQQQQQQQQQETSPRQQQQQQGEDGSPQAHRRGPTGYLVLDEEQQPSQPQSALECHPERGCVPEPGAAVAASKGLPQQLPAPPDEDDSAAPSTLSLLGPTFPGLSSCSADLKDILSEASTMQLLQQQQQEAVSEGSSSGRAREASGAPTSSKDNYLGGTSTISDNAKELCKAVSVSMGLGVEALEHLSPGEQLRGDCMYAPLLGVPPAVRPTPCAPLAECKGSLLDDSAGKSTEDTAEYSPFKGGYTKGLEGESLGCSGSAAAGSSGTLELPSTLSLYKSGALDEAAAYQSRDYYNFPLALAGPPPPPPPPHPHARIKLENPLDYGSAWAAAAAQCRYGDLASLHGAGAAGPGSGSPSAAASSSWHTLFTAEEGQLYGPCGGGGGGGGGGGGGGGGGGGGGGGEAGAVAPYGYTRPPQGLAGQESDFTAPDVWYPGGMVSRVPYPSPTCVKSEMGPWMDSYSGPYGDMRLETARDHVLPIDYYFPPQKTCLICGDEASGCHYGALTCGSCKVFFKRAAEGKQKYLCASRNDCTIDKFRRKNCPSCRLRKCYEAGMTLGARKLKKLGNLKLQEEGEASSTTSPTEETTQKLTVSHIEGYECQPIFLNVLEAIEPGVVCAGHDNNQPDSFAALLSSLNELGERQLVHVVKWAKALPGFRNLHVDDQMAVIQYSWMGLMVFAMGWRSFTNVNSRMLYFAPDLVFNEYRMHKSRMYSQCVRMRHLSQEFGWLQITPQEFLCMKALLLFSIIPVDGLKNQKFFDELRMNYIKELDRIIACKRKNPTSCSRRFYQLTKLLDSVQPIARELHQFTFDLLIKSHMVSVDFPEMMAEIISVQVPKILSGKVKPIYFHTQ

PC-3 [10] = experiment: Antiproliferative activity against human PC3 cells after 3 days by NR assay; type: functional, cell-based

Question: What does the source list for `C/C(=C/CC[C@@H](C)[C@H]1CC[C@@]2(C)C3=C(CC[C@]12C)[C@@]1(C)CCC(=O)C(C)(C)[C@@H]1CC3=O)C(=O)O` [GANODERIC ACID DM]?
Answer: IC50 [1]: 10.6 µM; Activity (Rattus norvegicus): Dose-dependent effect; viability at 72 h, 25 µM [2]: 72%; Activity (LNCaP [3]): Dose-dependent effect; Activity (RAW264): inactive; Activity (LNCaP [4]): Dose-dependent effect; inhibition at 12.5 µM [5]: 40%; Activity (PC-3 [6]): Active; Activity [7]: Non-toxic; Activity (LNCaP [8]): Dose-dependent effect; Activity [9]: 50%

Question: Which Activity (PC-3 [10]) does the source give for `C/C(=C\CC[C@@H](C)[C@H]1CC[C@@]2(C)C3=CC[C@H]4C(C)(C)[C@@H](O)CC[C@]4(C)C3=CC[C@]12C)CO` here?
Answer: Its Activity is “inactive”.

Question: With `CC(C)(C)NC(=O)[C@H]1CC[C@H]2[C@@H]3CC[C@H]4NC(=O)C=C[C@]4(C)[C@H]3CC[C@]12C` [FINASTERIDE] as the compound, how does the IC50 [1] read?
Answer: The IC50 was 0.73 µM.

Question: For `CC/C=C\C/C=C\C/C=C\CCCCCCCC(=O)O` [LINOLENIC ACID], which IC50 [1] is on record?
Answer: The IC50 was 116 µM.

Source: ChEMBL document CHEMBL1153984, “Ganoderic acid DM: anti-androgenic osteoclastogenesis inhibitor” (Bioorg Med Chem Lett, 2009)
